“And” between values parts separate entries of the source, which are not always exact repeats. Equal entries are not always repeated.
How the values were obtained:
κ-OR = tested on: κ-OR; design: method as in doi:10.1007/978-1-59745-197-0_6; settings: cited from earlier work
κ-OR (CHO-hκ-OR) = tested on: T1, κ-OR (CHO-hκ-OR); test: Antagonism of dynorphin A (10 nM) at κ-OR in the [35S]GTPγS assay; assay type: biochemical, human; settings: for [35S]GTPγS binding (% increase over basal), Mean / [35S]GTPγS binding (% increase over basal), single experiments: antagonist 3 μM; for [35S]GTPγS binding (% increase over basal), Mean: without antagonist mean 213; for [35S]GTPγS binding (% increase over basal), single experiments: without antagonist 130 and 296
T1 construct: expressed in transfected cells; host or cells: CHO cells, stably transfected; membranes

mouse δ opioid receptor = target: T2, mouse δ opioid receptor (Mus musculus, UniProt P32300); test: biochemical; assay type: binding
T2 construct: expressed in transfected cells; host or cells: CHO cells, stably transfected; membranes

human κ-OR [1] = target: T3, human κ-OR (Homo sapiens, UniProt P41145); test: Competitive inhibition of [3H]diprenorphine binding to CHO-κ-OR membranes; settings: for Ki: displacement of [3H]diprenorphine from CHO cell membranes expressing human κ-OR, n = 3, in duplicate, read-out: Ki ± SEM
T3 construct: expressed in transfected cells; host or cells: CHO cells, stably transfected; membranes

rat μ opioid receptor = target: T4, rat μ opioid receptor (Rattus norvegicus, UniProt P33535); test: biochemical; assay type: binding
T4 construct: expressed in transfected cells; host or cells: CHO cells, stably transfected; membranes

human κ-OR [2] = target: T3, human κ-OR; test: biochemical

SMILES: CC(C)[C@@H](CN1CC[C@@](C)(c2cccc(O)c2)[C@@H](C)C1)NC(=O)[C@H]1Cc2ccc(O)cc2CN1 [JDTic, reference compound]
- Ke (κ-OR): < 40 pM
- [35S]GTPγS binding (% increase over basal), Mean (κ-OR (CHO-hκ-OR)): 0 % increase over basal
- antagonism of dynorphin A (in words) (κ-OR (CHO-hκ-OR); primary screen at 3 μM): abolished response to dynorphin A

SMILES: COC(=O)C1CC(OC(C)=O)C(=O)C2C1(C)CCC1C(=O)OC(c3ccoc3CN(C)C)CC12C (stereo not drawn) [compound 2]
- [35S]GTPγS binding (% increase over basal), single experiments (κ-OR (CHO-hκ-OR)): 182 % increase over basal and 319 % increase over basal
- [35S]GTPγS binding (% increase over basal), Mean (κ-OR (CHO-hκ-OR)): 251 % increase over basal
- affinity for δ-OR (in words) (mouse δ opioid receptor): no affinity
- Ki (human κ-OR [1]): > 1 µM
- affinity for µ-OR (in words) (rat μ opioid receptor): no affinity

SMILES: COC(=O)C1CC(OC(C)=O)C(=O)C2C1(C)CCC1C(=O)OC(c3coc(CN(C)C)c3)CC12C (stereo not drawn) [compound 3]
- [35S]GTPγS binding (% increase over basal), single experiments (κ-OR (CHO-hκ-OR)): 146 % increase over basal and 270 % increase over basal
- [35S]GTPγS binding (% increase over basal), Mean (κ-OR (CHO-hκ-OR)): 208 % increase over basal
- affinity for δ-OR (in words) (mouse δ opioid receptor): no affinity
- Ki (human κ-OR [1]): > 1 µM
- affinity for µ-OR (in words) (rat μ opioid receptor): no affinity

SMILES: COC(=O)C1CC(OC(C)=O)C(=O)C2C1(C)CCC1C(=O)OC(c3ccoc3CO)CC12C (stereo not drawn) [compound 4]
- [35S]GTPγS binding (% increase over basal), single experiments (κ-OR (CHO-hκ-OR)): 249 % increase over basal and 415 % increase over basal
- [35S]GTPγS binding (% increase over basal), Mean (κ-OR (CHO-hκ-OR)): 332 % increase over basal
- inhibition at 3 µM (human κ-OR [1]; 3 µM, κ-OR, read-out: inhibition (displacement) of [3H]diprenorphine binding, initial screening): ≥ 50%
- Ki (human κ-OR [1]): 0.11 ± 0.01 µM
- EC50 (human κ-OR [2]): 0.345 ± 0.047 µM
- Emax (human κ-OR [2]): 103%

SMILES: COC(=O)C1CC(OC(C)=O)C(=O)C2C1(C)CCC1C(=O)OC(c3cc(CO)oc3CO)CC12C (stereo not drawn) [compound 5]
- [35S]GTPγS binding (% increase over basal), single experiments (κ-OR (CHO-hκ-OR)): 175 % increase over basal and 278 % increase over basal
- [35S]GTPγS binding (% increase over basal), Mean (κ-OR (CHO-hκ-OR)): 226 % increase over basal
- affinity for δ-OR (in words) (mouse δ opioid receptor): no affinity
- Ki (human κ-OR [1]): > 1 µM
- affinity for µ-OR (in words) (rat μ opioid receptor): no affinity

SMILES: COC(=O)C1CC(OCOCCO)C(=O)C2C1(C)CCC1C(=O)OC(c3ccoc3)CC12C (stereo not drawn) [compound 6]
- Ki (mouse δ opioid receptor): > 1 µM
- Ki (human κ-OR [1]): 0.0127 ± 0.0013 µM
- Ki (rat μ opioid receptor): > 1 µM
